The results in this text go back to US20260306527A1, “PRMT INHIBITOR COMPOUNDS AND THE USES THEREOF” (Purdue Research Foundation, priority 2023, published 2026).

Holding throughout (type): biochemical
In one assay the target is T1, PRMT4 (Homo sapiens, UniProt Q86X55).
T1 sequence (Q86X55 1-608): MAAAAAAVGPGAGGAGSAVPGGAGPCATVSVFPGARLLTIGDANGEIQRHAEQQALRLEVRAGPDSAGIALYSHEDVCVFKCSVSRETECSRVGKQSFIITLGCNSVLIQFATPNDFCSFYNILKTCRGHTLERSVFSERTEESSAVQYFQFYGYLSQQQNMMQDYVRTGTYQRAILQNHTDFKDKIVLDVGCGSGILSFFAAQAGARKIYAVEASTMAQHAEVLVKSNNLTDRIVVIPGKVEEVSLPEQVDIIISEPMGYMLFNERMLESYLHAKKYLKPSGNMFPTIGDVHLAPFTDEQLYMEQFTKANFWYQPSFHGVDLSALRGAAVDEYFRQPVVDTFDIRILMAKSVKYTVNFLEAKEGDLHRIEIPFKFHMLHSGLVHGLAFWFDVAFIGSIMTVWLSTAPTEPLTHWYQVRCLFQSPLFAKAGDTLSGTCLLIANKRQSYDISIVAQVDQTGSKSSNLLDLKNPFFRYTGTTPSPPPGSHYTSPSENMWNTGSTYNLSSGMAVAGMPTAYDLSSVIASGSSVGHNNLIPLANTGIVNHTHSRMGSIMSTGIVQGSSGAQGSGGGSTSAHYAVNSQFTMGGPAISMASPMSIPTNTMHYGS
Briefly: radioactive assay (Reaction Biology Corp.), inhibition of PRMT4. As to the method:
(§1) Next, the inhibition activity of the library was investigated for five PRMT members from type I PRMTs.
(§2) The PRMT 4, 6 and 8 methylation assays were performed by Reaction Biology corp.

The next assay addresses PRMT6 (Homo sapiens, UniProt Q96LA8). Description: radioactive assay (Reaction Biology Corp.), inhibition of PRMT6. As to the method:
as §1, §2

The target in a further assay is T2, PRMT1 (Homo sapiens, UniProt Q99873).
T2 construct: made in house
Description: SAHH-coupled fluorescence assay, inhibition of PRMT1. The following applies: for IC50: read-out: IC50 FOR PRMT1. The protocol:
(§3) A fluorescence-based SAHH-coupled assay was applied to study the inhibition activity of all synthesized compounds on PRMT 1 and 3.
(§4) The PRMT1 methylation assay was performed under the following conditions in a final well volume of 100 μL: 2.5 mM HEPES (pH=7.0), 25 mM NaCl, 25 μM EDTA, 50 μM TCEP, 0.01% Triton X-100, 5 μM SAHH, 0.1 μM PRMT1, 10 μM AdoMet, and 10 μM ThioGlo4. […] The fluorescence signal was monitored on a BMG CLARIOstar microplate reader with excitation at 400 nm and emission at 465 nm for 15 min. Data were processed using GraphPad Prism software 8.0.
as §1
as §4, with “A fluorescence-based SAHH-coupled assay was applied to determine the inhibition activity of all synthesized compounds on PRMT 1 and 3. The PRMT1” for “The PRMT1”, “software 8.0. All experiments were performed in duplicate.” for “software 8.0.”

The target of a further assay is PRMT8 (Homo sapiens, UniProt Q9NR22). Description: radioactive assay (Reaction Biology Corp.), inhibition of PRMT8. The protocol: as §1, §2
The next assay deals with PRMT3 (Homo sapiens, UniProt O60678). Briefly: SAHH-coupled fluorescence assay, inhibition of PRMT3. Further details: PRMT3 (residues 211-531) was cloned into the pET28a-MHL expression vector; tag of the pET28a-MHL vector (not described); made in house; host or cells: Escherichia coli BL21(DE3). The protocol: as §3
The PRMT3 methylation assay was performed under the following conditions in a final well volume of 100 μL: 20 mM Tris (pH=7.5), 0.01% Triton X-100, 5 μM SAHH, 0.25 μM PRMT3, 30 μM AdoMet, and 15 μM ThioGlo4. […] Fluorescence was monitored on a BMG CLARIOstar microplate reader with excitation 380 nm and emission 505 nm. Data were processed by using GraphPad Prism software 8.0. All experiments were performed in duplicate.
as §1
The PRMT3 methylation assay was performed under the following conditions in a final well volume of 100 μL: 20 mM Tris (pH=7.5), 0.01% Triton X-100, 5 μM SAHH, 0.25 μM PRMT3, 30 μM AdoMet, and 15 μM ThioGlo4. […] Fluorescence was monitored on a BMG CLARIOstar microplate reader with excitation 380 nm and emission 505 nm. Data were processed by using GraphPad Prism software 8.0.

Sequence of PRMT8 (Q9NR22 whole entry, species assumed, the tested form may be a part): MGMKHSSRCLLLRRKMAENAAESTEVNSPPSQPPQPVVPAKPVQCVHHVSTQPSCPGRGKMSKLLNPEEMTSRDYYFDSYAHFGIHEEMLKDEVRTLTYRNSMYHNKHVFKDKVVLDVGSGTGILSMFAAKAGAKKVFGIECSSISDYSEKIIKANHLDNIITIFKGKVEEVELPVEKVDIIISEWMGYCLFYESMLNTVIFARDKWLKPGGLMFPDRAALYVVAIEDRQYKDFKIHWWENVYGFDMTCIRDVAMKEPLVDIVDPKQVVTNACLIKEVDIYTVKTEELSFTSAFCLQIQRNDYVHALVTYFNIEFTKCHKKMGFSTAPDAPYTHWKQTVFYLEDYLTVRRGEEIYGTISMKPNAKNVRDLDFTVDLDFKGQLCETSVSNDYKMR
T2 sequence (Q99873 whole entry, species assumed): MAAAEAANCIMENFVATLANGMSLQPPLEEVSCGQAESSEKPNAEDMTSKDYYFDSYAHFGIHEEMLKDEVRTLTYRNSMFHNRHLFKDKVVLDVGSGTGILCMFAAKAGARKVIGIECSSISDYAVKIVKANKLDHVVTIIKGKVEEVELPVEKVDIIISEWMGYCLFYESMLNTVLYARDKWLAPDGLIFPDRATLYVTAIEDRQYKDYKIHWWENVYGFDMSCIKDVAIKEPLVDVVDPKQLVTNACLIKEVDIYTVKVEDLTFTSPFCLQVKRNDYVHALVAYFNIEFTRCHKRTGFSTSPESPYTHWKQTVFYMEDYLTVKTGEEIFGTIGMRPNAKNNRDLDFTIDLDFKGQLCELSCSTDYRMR
Sequence of PRMT3 (O60678 211-531): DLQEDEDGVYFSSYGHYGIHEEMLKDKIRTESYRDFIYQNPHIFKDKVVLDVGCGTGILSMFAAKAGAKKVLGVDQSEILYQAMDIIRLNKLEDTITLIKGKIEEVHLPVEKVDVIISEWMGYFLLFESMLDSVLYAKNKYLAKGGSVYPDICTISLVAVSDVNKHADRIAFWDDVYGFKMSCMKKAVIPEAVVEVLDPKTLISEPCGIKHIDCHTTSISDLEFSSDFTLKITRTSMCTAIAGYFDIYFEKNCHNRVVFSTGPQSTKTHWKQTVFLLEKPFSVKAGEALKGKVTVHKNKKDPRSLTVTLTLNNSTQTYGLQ
Sequence of PRMT6 (Q96LA8 whole entry, species assumed): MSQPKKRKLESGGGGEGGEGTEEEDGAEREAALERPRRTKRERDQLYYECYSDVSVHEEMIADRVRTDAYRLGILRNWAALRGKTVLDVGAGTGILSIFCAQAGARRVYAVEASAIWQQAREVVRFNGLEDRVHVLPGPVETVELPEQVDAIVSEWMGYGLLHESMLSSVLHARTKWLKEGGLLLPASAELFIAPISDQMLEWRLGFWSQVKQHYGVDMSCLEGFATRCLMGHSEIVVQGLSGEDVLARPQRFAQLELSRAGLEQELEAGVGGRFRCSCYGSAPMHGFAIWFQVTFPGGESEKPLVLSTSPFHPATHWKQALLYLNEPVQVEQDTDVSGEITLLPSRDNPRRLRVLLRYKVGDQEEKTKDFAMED

The term inhibition denotes the relative decrease from the control value, in per cent. Regarding `COc1cc2nc(-c3cccc(O)c3)nc(NCCSC[C@H]3O[C@@H](n4cnc5c(N)ncnc54)[C@H](O)[C@@H]3O)c2cc1OC` [Compound 12g], the inhibition at 10 µM on PRMT4 was found to be 10%; at PRMT6 it was 13%; against PRMT1, 2%; at PRMT8 it was 25%; against PRMT3, 4%.
The corresponding values for `Nc1ncnc2c1ncn2[C@@H]1O[C@H](CSCCNC(=O)NCc2ccc(-c3ccccc3O)cc2)[C@@H](O)[C@H]1O` [Compound 8e] are 53%, -2%, 11%, -2% and 13%.
The corresponding values for `COc1cc2nc(-c3ccc(N)cc3)nc(NCCSC[C@H]3O[C@@H](n4cnc5c(N)ncnc54)[C@H](O)[C@@H]3O)c2cc1OC` [Compound 12j] are 1%, 8%, 12%, 21% and 13%.
The corresponding values for `N=C(NCCCSC[C@H]1O[C@@H](n2cnc3c(N)ncnc32)[C@H](O)[C@@H]1O)Nc1cccc(-c2cccc([N+](=O)[O-])c2)c1` [Compound 6p] are 100%, 98%, 93%, 100% and 0%.
Consider `Nc1ncnc2c1ncn2[C@@H]1O[C@H](CSCCOc2ccc(-c3ccc(F)c(O)c3)cc2)[C@@H](O)[C@H]1O` [Compound 14d], for which the inhibition at 10 µM turned out to be 51% at PRMT4; 18% at PRMT6; 16% against PRMT1; 42% on PRMT8; 3% at PRMT3.
For `COc1cc2nc(-c3ccc(F)c(O)c3)nc(NCCSC[C@H]3O[C@@H](n4cnc5c(N)ncnc54)[C@H](O)[C@@H]3O)c2cc1OC` [Compound 12f], the inhibition at 10 µM on PRMT4 was 51%; on PRMT6, 16%; against PRMT1, 12%; at PRMT8 it was 21%; on PRMT3 it was 9%.
The corresponding values for `Nc1ncnc2c1ncn2[C@@H]1O[C@H](CSCCNCc2cccc(-c3cccc(F)c3)c2)[C@@H](O)[C@H]1O` [Compound 10c] are 100%, 49%, 11%, 68% and 12%.
The corresponding values for `Nc1ncnc2c1ncn2[C@@H]1O[C@H](CSCCOc2ccc(-c3cncnc3)cc2)[C@@H](O)[C@H]1O` [Compound 14e] are 22%, 7%, 7%, 28% and 16%.
The corresponding values for `Nc1ncnc2c1ncn2[C@@H]1O[C@H](CSCCOc2ccc(-c3ccc(Cl)cc3)cc2)[C@@H](O)[C@H]1O` [Compound 14a] are 47%, -4%, 2%, 38% and 9%.
As to `N=C(NCCCSC[C@H]1O[C@@H](n2cnc3c(N)ncnc32)[C@H](O)[C@@H]1O)Nc1cccc(-c2ccoc2)c1` [Compound 6i], the inhibition at 10 µM at PRMT4 came out at 100%; at PRMT6 it was 95%; against PRMT1 it was 95%; at PRMT8, 98%; against PRMT3, 46%.
For `Nc1ncnc2c1ncn2[C@@H]1O[C@H](CSCCNC(=O)NCc2ccc(-c3ccc(O)cc3)cc2)[C@@H](O)[C@H]1O` [Compound 8c], the inhibition at 10 µM was 42% on PRMT4; 82% at PRMT6; 21% on PRMT1; 3% at PRMT8; 10% at PRMT3.
As to `Nc1ncnc2c1ncn2[C@@H]1O[C@H](CSCCNC(=O)NCc2ccc(-c3cc[nH]n3)cc2)[C@@H](O)[C@H]1O` [Compound 8f], the inhibition at 10 µM on PRMT4 is 17%; on PRMT6, -6%; against PRMT1 it was 27%; at PRMT8, 2%; against PRMT3, 9%.
The corresponding values for `COc1cc2nc(-c3ccc(C(F)(F)F)cc3)nc(NCCSC[C@H]3O[C@@H](n4cnc5c(N)ncnc54)[C@H](O)[C@@H]3O)c2cc1OC` [Compound 12e] are 43%, 19%, 3%, 37% and 5%.
The term IC50 denotes the point on the concentration scale where inhibition reaches its midpoint. On to `N=C(NCCCSC[C@H]1O[C@@H](n2cnc3c(NCCCc4ccccc4)ncnc32)[C@H](O)[C@@H]1O)NC1CC1` [Compound 19b], for which the inhibition at 10 µM at PRMT4 is 23%; at PRMT6, 73%; on PRMT1 it was 86%; at PRMT8, 69%; against PRMT3 it was 13%. Further, the IC50 on PRMT1 stood at 1200 ± 52 nM.
As for `Nc1ncnc2c1ncn2[C@@H]1O[C@H](CSCCNCc2cccc(-c3cccc4cn[nH]c34)c2)[C@@H](O)[C@H]1O` [Compound 10h], the inhibition at 10 µM at PRMT4 was determined as 100%; on PRMT6 it was 82%; at PRMT1 it was 1%; at PRMT8 it was 58%; on PRMT3, 12%.
Take `COc1cc2nc(-c3ccc(Cl)cc3)nc(NCCSC[C@H]3O[C@@H](n4cnc5c(N)ncnc54)[C@H](O)[C@@H]3O)c2cc1OC` [Compound 12a]: the inhibition at 10 µM at PRMT4 came out at 69%; at PRMT6, 85%; against PRMT1, 1%; at PRMT8 it was 23%; against PRMT3, 4%. At PRMT6 (10 μM), the “PRMT6 inhibition” value is listed as “selective inhibition to PRMT6”.
Regarding `CCNC(=O)NCCSC[C@H]1O[C@@H](n2cnc3c(N)ncnc32)[C@H](O)[C@@H]1O` [Compound 7g, 1-(2-((((2S,3S,4R,5R)-5-(6-amino-9H-purin-9-yl)-3,4-dihydroxytetrahydrofuran-2-yl)methyl)thio)ethyl)-3-ethylurea], the inhibition at 10 µM on PRMT4 turned out to be 27%; on PRMT6 it was 3%; against PRMT1, 10%; at PRMT8, 14%; against PRMT3, 4%.
As for `CCCCNC(=N)NCCCSC[C@H]1O[C@@H](n2cnc3c(NCCCc4ccccc4)ncnc32)[C@H](O)[C@@H]1O` [Compound 19a], the inhibition at 10 µM on PRMT4 came out at 47%; on PRMT6, 84%; against PRMT1 it was 94%; at PRMT8, 85%; against PRMT3 it was 14%. Besides, the IC50 on PRMT1 is 650 ± 62 nM.
